In this assay the target is p38a activated, mitogen-activated protein kinase-activated protein kinase 2 (MAPKAP-K2 or MK2) enzyme (Homo sapiens (Human), UniProt P49137). Description: MK2 Omnia continuous-read kinase assay for compound potency. Format: biochemical. Particulars: [MK-2]=0.4 nM, [ATP]=10 μM, [ST3-Sox]=10 μM; room temperature. The essentials:
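p38a-activated MK2 (0.4 nM) with 10 μM ATP (apparent Km) and 10 μM S/T3-Sox peptide in Tris pH 7.5 buffer with MgCl2, EGTA and DTT. Fluorescence (ex360/em485) read continuously for 120 min at room temperature. IC50 from initial linear slopes; apparent kinact/KI from kobs of exponential progress-curve fits.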

Sequence of p38a activated, mitogen-activated protein kinase-activated protein kinase 2 (MAPKAP-K2 or MK2) enzyme (P49137 whole entry): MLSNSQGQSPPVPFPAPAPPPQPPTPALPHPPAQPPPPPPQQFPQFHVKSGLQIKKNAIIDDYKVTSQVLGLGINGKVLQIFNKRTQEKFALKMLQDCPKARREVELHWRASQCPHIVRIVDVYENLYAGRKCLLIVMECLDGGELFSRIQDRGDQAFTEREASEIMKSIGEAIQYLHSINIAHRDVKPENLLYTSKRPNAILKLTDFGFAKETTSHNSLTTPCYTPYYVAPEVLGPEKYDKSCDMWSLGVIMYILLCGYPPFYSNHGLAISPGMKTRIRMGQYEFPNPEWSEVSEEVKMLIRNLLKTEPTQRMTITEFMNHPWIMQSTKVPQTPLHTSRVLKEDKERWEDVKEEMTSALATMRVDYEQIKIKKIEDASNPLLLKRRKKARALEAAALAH

Consider `C#Cc1cc(-c2ccc3c(ccc4sc5c(c43)NC[C@@H](C)NC5=O)n2)ccn1` [Example I-57, (R)-3-(2-ethynylpyridin-4-yl)-10-methyl-9,10,11,12-tetrahydro-8H-[1,4]diazepino[5′,6′:4,5]thieno[3,2-f]quinolin-8-one], for which the IC50 (usually the concentration needed to halve the response being measured) amounted to 117 nM.

Take `C=Cc1cc(-c2ccc3c(ccc4sc5c(c43)NC[C@@H](C)NC5=O)n2)c(OC(F)(F)F)cn1` [Example I-245, (R)-10-methyl-3-(5-(trifluoromethoxy)-2-vinylpyridin-4-yl)-9,10,11,12-tetrahydro-8H-[1,4]diazepino[5′,6′:4,5]thieno[3,2-f]quinolin-8-one]: the IC50 is 74 nM.

With `C#Cc1nncn1-c1ccc2c(ccc3sc4c(c32)NC[C@@H](C)NC4=O)n1` [Example I-204, (R)-3-(3-ethynyl-4H-1,2,4-triazol-4-yl)-10-methyl-9,10,11,12-tetrahydro-8H-[1,4]diazepino[5′,6′:4,5]thieno[3,2-f]quinolin-8-one], the IC50 worked out at 555 nM.

Take “(R)-10-methyl-3-(6-(4-methylpiperazin-1-yl)-2-vinylpyrimidin-4-yl)-9,10,11,12-tetrahydro-8H-[1,4]diazepino[5′,6′:4,5]thieno[3,2-f]quinolin- [Example I-18]”: the IC50 was 4 nM.

In the case of `C#Cc1cc(-c2ccc3c(ccc4sc5c(c43)NC[C@@H](C)NC5=O)n2)cc(N2CCCCC2)n1` [Example I-178, (R)-3-(2-ethynyl-6-(piperidin-1-yl)pyridin-4-yl)-10-methyl-9,10,11,12-tetrahydro-8H-[1,4]diazepino[5′,6′:4,5]thieno[3,2-f]quinolin-8-one], the IC50 turned out to be 185 nM.

Consider `C=Cc1cccc(-c2ccc3c(ccc4sc5c(c43)NC[C@@H](C)NC5=O)n2)n1` [Example I-54, (R)-10-methyl-3-(6-vinylpyridin-2-yl)-9,10,11,12-tetrahydro-8H-[1,4]diazepino[5′,6′:4,5]thieno[3,2-f]quinolin-8-one], for which the IC50 amounted to 61 nM.

As to `C=C(F)c1cc(-c2ccc3c(ccc4sc5c(c43)NC[C@@H](C)NC5=O)n2)ccn1` [Example I-108, (R)-3-(2-(1-fluorovinyl)pyridin-4-yl)-10-methyl-9,10,11,12-tetrahydro-8H-[1,4]diazepino[5′,6′:4,5]thieno[3,2-f]quinolin-8-one], the IC50 amounted to 122 nM.

On to `COc1cnc(Cl)nc1-c1ccc2c(ccc3sc4c(c32)NC[C@@H](C)NC4=O)n1` [Example I-10, (R)-3-(2-chloro-5-methoxypyrimidin-4-yl)-10-methyl-9,10,11,12-tetrahydro-8H-[1,4]diazepino[5′,6′:4,5]thieno[3,2-f]quinolin-8-one], for which the IC50 is 291 nM.

Consider `C[C@@H]1CNc2c(sc3ccc4nc(-n5ccnc5C#N)ccc4c23)C(=O)N1` [Example I-246, (R)-1-(10-methyl-8-oxo-9,10,11,12-tetrahydro-8H-[1,4]diazepino[5′,6′:4,5]thieno[3,2-f]quinolin-3-yl)-1H-imidazole-2-carbonitrile], for which the IC50 turned out to be 16 nM.

On to `C#Cc1cc(-c2ccc3c(ccc4sc5c(c43)NC[C@@H](C)NC5=O)n2)cc(CN2C[C@@H](C)O[C@H](C)C2)n1` [Example I-188, (R)-3-(2-(((2R,6R)-2,6-dimethylmorpholino)methyl)-6-ethynylpyridin-4-yl)-10-methyl-9,10,11,12-tetrahydro-8H-[1,4]diazepino[5′,6′:4,5]thieno[3,2-f]quinolin-8-one], for which the half-inhibitory concentration (IC50) worked out at 25 nM.

Turning to `C#Cc1nc(C#CC(C)(C)N)cc(-c2ccc3c(ccc4sc5c(c43)NC[C@@H](C)NC5=O)n2)n1` [Example I-65, (R)-3-(6-(3-amino-3-methylbut-1-yn-1-yl)-2-ethynylpyrimidin-4-yl)-10-methyl-9,10,11,12-tetrahydro-8H-[1,4]diazepino[5′,6′:4,5]thieno[3,2-f]quinolin-8-one], the IC50 was 132 nM.

As to `C[C@@H]1CNc2c(sc3ccc4nc(-n5ccc(Cl)n5)ccc4c23)C(=O)N1` [Example I-165, (R)-3-(3-chloro-1H-pyrazol-1-yl)-10-methyl-9,10,11,12-tetrahydro-8H-[1,4]diazepino[5′,6′:4,5]thieno[3,2-f]quinolin-8-one], the IC50 is 81 nM.

As to `C=C(CN1CCOCC1)c1cc(-c2ccc3c(ccc4sc5c(c43)NC[C@@H](C)NC5=O)n2)ccn1` [Example I-131, (R)-10-methyl-3-(2-(3-morpholinoprop-1-en-2-yl)pyridin-4-yl)-9,10,11,12-tetrahydro-8H-[1,4]diazepino[5′,6′:4,5]thieno[3,2-f]quinolin-8-one], the IC50 is 3 nM.

In the case of `C[C@@H]1CNc2c(sc3ccc4nc(-c5cc(CN6CCN(C)CC6)nc(Cl)n5)ccc4c23)C(=O)N1` [Example I-87, (R)-3-(2-chloro-6-((4-methylpiperazin-1-yl)methyl)pyrimidin-4-yl)-10-methyl-9,10,11,12-tetrahydro-8H-[1,4]diazepino[5′,6′:4,5]thieno[3,2-f]quinolin-8-one], the concentration for half-maximal inhibition (IC50) is 283 nM.

Regarding `C/C=C\c1cc(-c2ccc3c(ccc4sc5c(c43)NC[C@@H](C)NC5=O)n2)nc(COCC)n1` [Example I-36, (R,Z)-3-(2-(ethoxymethyl)-6-(prop-1-en-1-yl)pyrimidin-4-yl)-10-methyl-9,10,11,12-tetrahydro-8H-[1,4]diazepino[5′,6′:4,5]thieno[3,2-f]quinolin-8-one], the IC50 was found to be 12 nM.

As for `C=Cc1cc(-c2ccc3c(ccc4sc5c(c43)NC[C@@H](C)NC5=O)n2)cc(CO)n1` [Example I-99, (R)-3-(2-(hydroxymethyl)-6-vinylpyridin-4-yl)-10-methyl-9,10,11,12-tetrahydro-8H-[1,4]diazepino[5′,6′:4,5]thieno[3,2-f]quinolin-8-one], the IC50 was determined as 2 nM.

Take `C=Cc1cc(-c2ccc3c(ccc4sc5c(c43)NC[C@@H](C)NC5=O)n2)nc(CO)n1` [Example I-76, (R)-3-(2-(hydroxymethyl)-6-vinylpyrimidin-4-yl)-10-methyl-9,10,11,12-tetrahydro-8H-[1,4]diazepino[5′,6′:4,5]thieno[3,2-f]quinolin-8-one]: the concentration for half-maximal inhibition (IC50) turned out to be 1 nM.

For the molecule `C=Cc1cc(-c2ccc3c(ccc4sc5c(c43)NC[C@@H](C)NC5=O)n2)c(C)cn1` [Example I-109, (R)-10-methyl-3-(5-methyl-2-vinylpyridin-4-yl)-9,10,11,12-tetrahydro-8H-[1,4]diazepino[5′,6′:4,5]thieno[3,2-f]quinolin-8-one], the IC50 worked out at 4 nM.

`C=Cc1cc(-c2ccc3c(ccc4sc5c(c43)NC[C@@H](C)NC5=O)n2)c(C(F)F)cn1` [Example I-130, (R)-3-(5-(difluoromethyl)-2-vinylpyridin-4-yl)-10-methyl-9,10,11,12-tetrahydro-8H-[1,4]diazepino[5′,6′:4,5]thieno[3,2-f]quinolin-8-one]: the IC50 came out at 4 nM.

Take `C=Cc1cc(-c2ccc3c(ccc4sc5c(c43)NC[C@@H](C)NC5=O)n2)c(OC)nn1` [Example I-127, (R)-3-(3-methoxy-6-vinylpyridazin-4-yl)-10-methyl-9,10,11,12-tetrahydro-8H-[1,4]diazepino[5′,6′:4,5]thieno[3,2-f]quinolin-8-one]: the IC50 was 50 nM.

With `[2H]C([2H])([2H])C(O)(c1cnc(C=C)cc1-c1ccc2c(ccc3sc4c(c32)NC[C@@H](C)NC4=O)n1)C([2H])([2H])[2H]` [Example I-258, (R)-3-(5-(2-hydroxypropan-2-yl-1,1,1,3,3,3-d6)-2-vinylpyridin-4-yl)-10-methyl-9,10,11,12-tetrahydro-8H-[1,4]diazepino[5′,6′:4,5]thieno[3,2-f]quinolin-8-one], the IC50 turned out to be 1000 nM.

Regarding `C#Cc1cc(-c2ccc3c(ccc4sc5c(c43)NC[C@@H](C)NC5=O)n2)c(C#N)cn1` [Example I-162, (R)-6-ethynyl-4-(10-methyl-8-oxo-9,10,11,12-tetrahydro-8H-[1,4]diazepino[5′,6′:4,5]thieno[3,2-f]quinolin-3-yl)nicotinonitrile], the IC50 is 2 nM.

Regarding `C=Cc1cc(-c2ccc3c(ccc4sc5c(c43)NC[C@@H](C)NC5=O)n2)cc(N(C)CCOC)n1` [Example I-237, (R)-3-(2-((2-methoxyethyl)(methyl)amino)-6-vinylpyridin-4-yl)-10-methyl-9,10,11,12-tetrahydro-8H-[1,4]diazepino[5′,6′:4,5]thieno[3,2-f]quinolin-8-one], the IC50 was determined as 10 nM.

Regarding `C=Cc1cc(-c2ccc3c(ccc4sc5c(c43)NC[C@@H](CF)NC5=O)n2)c(C)cn1` [Example I-254, (S)-10-(fluoromethyl)-3-(5-methyl-2-vinylpyridin-4-yl)-9,10,11,12-tetrahydro-8H-[1,4]diazepino[5′,6′:4,5]thieno[3,2-f]quinolin-8-one], the IC50 amounted to 27 nM.

Take `C=Cc1cc(C(F)(F)F)n(-c2ccc3c(ccc4sc5c(c43)NC[C@@H](C)NC5=O)n2)n1` [Example I-257, (R)-10-methyl-3-(5-(trifluoromethyl)-3-vinyl-1H-pyrazol-1-yl)-9,10,11,12-tetrahydro-8H-[1,4]diazepino[5′,6′:4,5]thieno[3,2-f]quinolin-8-one]: the concentration for half-maximal inhibition (IC50) came to 1000 nM.

Consider `C=Cc1cc(-c2ccc3c(ccc4sc5c(c43)NC[C@@H](C)NC5=O)n2)c(COC)cn1` [Example I-253, (R)-3-(5-(methoxymethyl)-2-vinylpyridin-4-yl)-10-methyl-9,10,11,12-tetrahydro-8H-[1,4]diazepino[5′,6′:4,5]thieno[3,2-f]quinolin-8-one], for which the IC50 was 6 nM.

For `C=Cc1ncc(-c2ccc3c(ccc4sc5c(c43)NC[C@@H](C)NC5=O)n2)s1` [Example I-209, (R)-10-methyl-3-(2-vinylthiazol-5-yl)-9,10,11,12-tetrahydro-8H-[1,4]diazepino[5′,6′:4,5]thieno[3,2-f]quinolin-8-one], the IC50 is 15 nM.

For `C[C@@H]1CNc2c(sc3ccc4nc(-c5ccnc(Cl)c5)ccc4c23)C(=O)N1` [Example I-272, (R)-3-(2-chloropyridin-4-yl)-10-methyl-9,10,11,12-tetrahydro-8H-[1,4]diazepino[5′,6′:4,5]thieno[3,2-f]quinolin-8-one], the IC50 came out at 68 nM.
